Values after ≈ are worked out from the molar mass of the structure shown.
Experiments:
A549 = test: Cytotoxicity against human A549 cells by MTT method; assay type: functional; conditions: read-out: ED50 (the source's name)
P388 = test: Cytotoxicity against mouse P388 cells by MTT method; assay type: functional; conditions: read-out: ED50 (the source's name)

Structure (SMILES): C=C(C)[C@@H]1C=C[C@](C)(O)[C@@H]2CC[C@H](C)C[C@H]21 [XENITORIN C]
- EC50 (A549): > 50 mg/L
- EC50 (P388): > 50 mg/L

Structure (SMILES): C=C(C)[C@@H]1C(=O)C=C(C)[C@@H]2CC[C@H](C)C[C@@H]12 [XENITORIN B]
- EC50 (A549): > 50 mg/L
- EC50 (P388): > 50 mg/L

Structure (SMILES): C=C(C)[C@@H]1C(=O)C=C(C)[C@@]2(O)CC[C@H](C)C[C@@H]12 [XENITORIN F]
- EC50 (A549): > 50 mg/L
- EC50 (P388): > 50 mg/L

Structure (SMILES): C=C(C)[C@@H]1[C@H](O)[C@@H]2O[C@]2(C)[C@@H]2CC[C@H](C)C[C@@H]12 [XENITORIN D]
- EC50 (A549): > 50 mg/L
- EC50 (P388): > 50 mg/L

Structure (SMILES): C=C(C)[C@@H]1C(=O)C=C(C)[C@]2(O)CC[C@H](C)C[C@@H]12 [XENITORIN E]
- EC50 (A549): 1.86 mg/L (≈ 7.94 µM)
- EC50 (P388): 3.69 mg/L (≈ 15.7 µM)

Structure (SMILES): C=C(C)[C@H]1[C@@H]2C[C@@H](C)CC[C@H]2C(C)=C[C@H]1O [XENITORIN A]
- EC50 (A549): 0.79 mg/L (≈ 3.59 µM)
